Results published in US20070015723A1, “Antiviral oligonucleotides having a conserved G4 core sequence” (priority 1992, published 2007).
“And” between values parts separate entries of the source, which are not always exact repeats. Identical values can stand only once.

Tested on: HSV-1 (KOS)
Test: HSV-1 infection ELISA assay
Type: cell-based
[1] = 50% inhibition of HSV replication relative to control infected cells, Table 1

Substance	EC50 [1]	also measured
ISIS 4435: GGGGAGACCGAAACCGCAAA, phosphorothioate, SEQ ID NO 130 (GGGGAGACCGAAACCGCAAA; antisense; all phosphorothioate, sugars by position and methylation of C not given here)	–	EC50 (HSV-1 (KOS strain), Table 9, some in duplicate): 220 nM
ISIS 4664: GGG T GGG T ATA G AAG G GC, P = S, SEQ ID NO 48 (GGGTGGGTATAGAAGGGC; all phosphorothioate, sugars by position and methylation of C not given here)	200 nM	–
ISIS 4671: GGG T GGG T ATA GAA G, P = S, SEQ ID NO 49 (GGGTGGGTATAGAAG; all phosphorothioate, sugars by position not given here)	400 nM	–
ISIS 4692: T GGG T ATA G AAG GGC TCC, P = S, SEQ ID NO 51 (TGGGTATAGAAGGGCTCC; all phosphorothioate, sugars by position and methylation of C not given here)	1500 nM	–
ISIS 4693: G T ATA G AAG GGC TCC, P = S, SEQ ID NO 52 (GTATAGAAGGGCTCC; all phosphorothioate, sugars by position and methylation of C not given here)	> 3000 nM	–
ISIS 4694: TA G AAG GGC TCC, P = S, SEQ ID NO 53 (TAGAAGGGCTCC; all phosphorothioate, sugars by position and methylation of C not given here)	> 3000 nM	–
ISIS 4872: GGC GGG ACT ACG GGG, P = S, SEQ ID NO 11 (GGCGGGACTACGGGG; all phosphorothioate, sugars by position and methylation of C not given here)	1900 nM and 1700 nM	–
ISIS 4874: AGG CAT GAC CGG GGC, P = S, SEQ ID NO 3 (AGGCATGACCGGGGC; all phosphorothioate, sugars by position and methylation of C not given here)	1100 nM and 830 nM	–
ISIS 4882: CAT GGC GGG ACT ACG, P = S, SEQ ID NO 9 (CATGGCGGGACTACG; all phosphorothioate, sugars by position and methylation of C not given here)	1700 nM and 1400 nM	–
ISIS 4885: A GAC CGG GGT TGG GG, P = S, SEQ ID NO 24 (AGACCGGGGTTGGGG; all phosphorothioate, sugars by position and methylation of C not given here)	420 nM and 510 nM	–
ISIS 4889: AGG GGA ATC CGT CAT, P = S, SEQ ID NO 14 (AGGGGAATCCGTCAT; all phosphorothioate, sugars by position and methylation of C not given here)	2000 nM	–
ISIS 4890: GCC AGG GGA ATC CGT, P = S, SEQ ID NO 15 (GCCAGGGGAATCCGT; all phosphorothioate, sugars by position and methylation of C not given here)	750 nM and 700 nM	–
ISIS 4894: CAT CGC CGA TCG GGG, P = S, SEQ ID NO 18 (CATCGCCGATCGGGG; all phosphorothioate, sugars by position and methylation of C not given here)	> 3000 nM	–
ISIS 4895: CGC CGA TGC GGG GCG, P = S, SEQ ID NO 19 (CGCCGATGCGGGGCG; all phosphorothioate, sugars by position and methylation of C not given here)	550 nM	–
ISIS 4896: GC CGA TGC GGG G, P = S, SEQ ID NO 20 (GCCGATGCGGGG; all phosphorothioate, sugars by position and methylation of C not given here)	1200 nM	–
ISIS 4925: GTT GGA GAC CGG IGT TGG IG, Inosine #13, 19, SEQ ID NO 137 (GTT GGA GAC CGG IGTTGG IG; inosine at 13, 19, as printed in the source, key not given here)	–	EC50 (Table 12, inosine-substituted): 1600 nM
